Where a name gives a salt, the structure may show the parent alone.

Cathepsin D (Cat D), sequence (P07339 65-412, species assumed): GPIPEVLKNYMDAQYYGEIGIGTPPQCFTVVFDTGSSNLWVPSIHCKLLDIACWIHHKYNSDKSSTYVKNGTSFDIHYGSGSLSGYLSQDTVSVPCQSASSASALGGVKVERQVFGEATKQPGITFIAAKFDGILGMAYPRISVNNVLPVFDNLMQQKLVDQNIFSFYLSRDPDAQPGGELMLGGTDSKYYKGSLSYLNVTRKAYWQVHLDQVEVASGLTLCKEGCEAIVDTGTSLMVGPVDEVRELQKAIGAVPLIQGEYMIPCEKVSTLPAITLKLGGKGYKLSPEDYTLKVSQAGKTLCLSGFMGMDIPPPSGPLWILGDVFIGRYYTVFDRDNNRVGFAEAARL

This assay has as its target Cathepsin D (Cat D) (Homo sapiens (Human), UniProt P07339). Kind of assay: In vitro enzymatic Cathepsin D (Cat D) FRET assay. Type of assay: biochemical. The following applies: read-out: CatD IC50.
Usually IC50 stands for the concentration at which inhibition is half-maximal. As to `Cc1cc(OCC#CC(C)(C)O)cnc1C(=O)Nc1ccc(F)c(C2(C)N=C(N)O[C@H]3C[C@H]32)c1` (mixture of isomers) [Example 29, N-(3-([1(R,S),5(S,R),6(R,S)]-3-amino-5-methyl-2-oxa-4-azabicyclo[4.1.0]hept-3-en-5-yl)-4-fluorophenyl)-5-((4-hydroxy-4-methylpent-2-yn-1-yl)oxy)-3-methylpicolinamide], the IC50 was found to be 462 µM.
As for `Cc1cc(NC(=O)c2ccc(Cl)cn2)cc([C@@]2(C(F)F)N=C(N)O[C@@H]3C[C@@H]32)c1F` (racemic) [Example 30, N-(3-([(1R,S),(5S,R),(6R,S)]-3-amino-5-(difluoromethyl)-2-oxa-4-azabicyclo[4.1.0]hept-3-en-5-yl)-4-fluoro-5-methylphenyl)-5-chloropicolinamide], the IC50 is 469 µM.
Turning to `COc1c(F)cc(NC(=O)c2ccc(Cl)cn2)cc1[C@@]1(CF)N=C(N)O[C@@H]2C[C@@H]21` (racemic) [Example 31, N-(3-([(1R,S),(5S,R),(6R,S)]-3-amino-5-(fluoromethyl)-2-oxa-4-azabicyclo[4.1.0]hept-3-en-5-yl)-5-fluoro-4-methoxyphenyl)-5-chloropicolinamide], the IC50 turned out to be 339 µM.
With `N#Cc1ccc(C(=O)Nc2ccc(F)c([C@]3(C(F)F)N=C(N)O[C@H]4C[C@H]43)c2)nc1` (racemic) [Example 59, N-(3-([1(R,S),5(S,R),6(R,S)]-3-amino-5-(difluoromethyl)-2-oxa-4-azabicyclo[4.1.0]hept-3-en-5-yl)-4-fluorophenyl)-5-cyanopicolinamide compound] the figure was 899 µM; with `N#Cc1cnc(C(=O)Nc2ccc(F)c([C@]3(C(F)F)N=C(N)O[C@H]4C[C@H]43)c2)c(Cl)c1` (racemic) [Example 62, N-(3-([1(R,S),5(S,R),6(R,S)]-3-amino-5-(difluoromethyl)-2-oxa-4-azabicyclo[4.1.0]hept-3-en-5-yl)-4-fluorophenyl)-3-chloro-5-cyanopicolinamide], 1100 µM.
Regarding `N#Cc1ccc(C(=O)Nc2cnc(F)c([C@]3(C(F)F)N=C(N)O[C@H]4C[C@H]43)c2)nc1` (racemic) [Example 75, N-(5-([1(R,S),5(S,R),6(R,S)]-3-amino-5-(difluoromethyl)-2-oxa-4-azabicyclo[4.1.0]hept-3-en-5-yl)-6-fluoropyridin-3-yl)-5-cyanopicolinamide], the IC50 was 348 µM.
For `N#Cc1ccc(C(=O)Nc2ccc(Cl)c([C@@]3(C(F)F)N=C(N)O[C@@H]4C[C@@H]43)c2)nc1` (racemic) [Example 98, N-(3-(((1R,S), (5S,R), (6R,S))-3-amino-5-(difluoromethyl)-2-oxa-4-azabicyclo[4.1.0]hept-3-en-5-yl)-4-chlorophenyl)-5-cyanopicolinamide trifluoroacetate], the IC50 is 1160 µM.
With `N#Cc1ccc(C(=O)Nc2cc(F)c(F)c([C@@]3(C(F)F)N=C(N)O[C@@H]4C[C@@H]43)c2)nc1` (stereo in doubt) [Example 109, N-(3-((1R,5S,6R)-3-amino-5-(difluoromethyl)-2-oxa-4-azabicyclo[4.1.0]hept-3-en-5-yl)-4,5-difluorophenyl)-5-cyanopicolinamide] the figure was over 400 µM.
With `N#Cc1ccc(C(=O)Nc2cc(F)c(F)c([C@@]3(CF)N=C(N)O[C@@H]4C[C@@H]43)c2)nc1` [Example 37, N-(3-((1R,5S,6R)-3-amino-5-(fluoromethyl)-2-oxa-4-azabicyclo[4.1.0]hept-3-en-5-yl)-4,5-difluorophenyl)-5-cyanopicolinamide] the figure was 364 µM.
As to `N#Cc1ccc(C(=O)Nc2cc(F)c(F)c([C@]3(CF)N=C(N)O[C@H]4C[C@H]43)c2)nc1` [Example 38, N-(3-((1S,55,6S) 3-amino-5-(fluoromethyl)-2-oxa-4-azabicyclo[4.1.0]hept-3-en-5-yl)-4,5-difluorophenyl)-5-cyanopicolinamide], the IC50 was found to be 2620 µM.
To `COc1ccc(C(=O)Nc2cc(F)c(F)c([C@@]3(CF)N=C(N)O[C@@H]4C[C@@H]43)c2)nc1` [Example 41, N-(3-((1R,5S,6R)-3-amino-5-(fluoromethyl)-2-oxa-4-azabicyclo[4.1.0]hept-3-en-5-yl)-4,5-difluorophenyl)-5-methoxypicolinamide] belongs 238 µM.
For the compound `COCc1cc(Cl)cnc1C(=O)Nc1ccc(F)c([C@@]2(C(F)F)N=C(N)O[C@@H]3C[C@@H]32)c1` [Example 42, N-(3-((1R,5S,6R)-3-amino-5-(difluoromethyl)-2-oxa-4-azabicyclo[4.1.0]hept-3-en-5-yl)-4-fluorophenyl)-5-chloro-3-(methoxymethyl) picolinamide], the IC50 is 736 µM.
Turning to `N#Cc1ccc(C(=O)Nc2ccc(F)c([C@]3(C(F)F)N=C(N)O[C@H]4C[C@H]43)c2)nc1` [Example 65, N-(3-((1S,5R,6S)-3-amino-5-(difluoromethyl)-2-oxa-4-azabicyclo[4.1.0]hept-3-en-5-yl)-4-fluorophenyl)-5-cyanopicolinamide], the IC50 is over 400 µM.
As to `N#Cc1cnc(C(=O)Nc2ccc(F)c([C@]3(C(F)F)N=C(N)O[C@H]4C[C@H]43)c2)c(Cl)c1` [Example 67, N-(3-((1S,5R,6S)-3-amino-5-(difluoromethyl)-2-oxa-4-azabicyclo[4.1.0]hept-3-en-5-yl)-4-fluorophenyl)-3-chloro-5-cyanopicolinamide], the IC50 was 1290 µM.
On to `N#Cc1ccc(C(=O)Nc2ccc(Cl)c([C@]3(C(F)F)N=C(N)O[C@H]4C[C@H]43)c2)nc1` [Example 94, N-(3-((1S,5R,6S)-3-amino-5-(difluoromethyl)-2-oxa-4-azabicyclo[4.1.0]hept-3-en-5-yl)-4-chlorophenyl)-5-cyanopicolinamide], for which the IC50 is 1920 µM.
Consider `NC1=N[C@@](c2cc(NC(=O)c3ccc(Cl)cn3)cc(F)c2F)(C(F)F)[C@H]2C[C@H]2O1` [Example 107, N-(3-((1R,5S,6R)-3-amino-5-(difluoromethyl)-2-oxa-4-azabicyclo[4.1.0]hept-3-en-5-yl)-4,5-difluorophenyl)-5-chloropicolinamide], for which the IC50 was 213 µM.
As to `NC1=N[C@](c2cc(NC(=O)c3ccc(Cl)cn3)cc(F)c2F)(C(F)F)[C@@H]2C[C@@H]2O1` [Example 108, N-(3-((1S,5R,6S)-3-amino-5-(difluoromethyl)-2-oxa-4-azabicyclo[4.1.0]hept-3-en-5-yl)-4,5-difluorophenyl)-5-chloropicolinamide], the IC50 amounted to 472 µM.
With `COc1cnc(C(=O)Nc2cc(F)c(F)c([C@@]3(C(F)F)N=C(N)O[C@@H]4C[C@@H]43)c2)cn1` [Example 112, N-(3-((1R,5S,6R)-3-amino-5-(difluoromethyl)-2-oxa-4-azabicyclo[4.1.0]hept-3-en-5-yl)-4,5-difluorophenyl)-5-methoxypyrazine-2-carboxamide] the figure was 4180 µM; with `N#Cc1ccc(C(=O)Nc2cc(F)c(F)c([C@@]3(C(F)F)N=C(N)O[C@@H]4C[C@@H]43)c2)nc1` [Example 113, N-(3-((1R,5S,6R)-3-amino-5-(difluoromethyl)-2-oxa-4-azabicyclo[4.1.0]hept-3-en-5-yl)-4,5-difluorophenyl)-5-cyanopicolinamide], over 618 µM.
Turning to `NC1=N[C@@](c2cc(NC(=O)c3ccc(Br)cn3)cc(F)c2F)(C(F)F)[C@H]2C[C@H]2O1` [Example 116, N-(3-((1R,5S,6R)-3-amino-5-(difluoromethyl)-2-oxa-4-azabicyclo[4.1.0]hept-3-en-5-yl)-4,5-difluorophenyl)-5-bromopicolinamide], the IC50 turned out to be 81.9 µM.

Source of the values: patent publication US9085576B2 (AMGEN INC., priority 2013, dated 2015).
